{"source": "paper PMC9161616", "about": "“A first-in-human phase 1/2 study of FGF401 and combination of FGF401 with spartalizumab in patients with hepatocellular carcinoma or biomarker-selected solid tumors” (Journal of Experimental & Clinical Cancer Research : CR, 2022)", "key": {"[1]": {"system": "patients with HCC and intrahepatic cholangiocarcinoma", "design": "method as in doi:10.1200/JCO.2019.37.15_suppl.4095, doi:10.1200/JCO.2021.39.15_suppl.4090", "conditions": "cited from earlier work"}, "patients with HCC": {"system": "patients with HCC", "design": "method as in PMID 31575541", "conditions": "cited from earlier work"}, "[2]": {"assay": "Pharmacokinetics of spartalizumab in combination arm", "assay_type": "in vivo, human", "conditions": "for AUC0-504h / AUClast / Cmax / Tmax: Cycle 1 day 1; for AUC0-504h / AUClast / Cmax: geometric mean (CV%); for Tmax: median [min, max]", "description": "(§1) Pharmacokinetic endpoints included plasma concentrations and PK parameters of FGF401 and spartalizumab. Pharmacokinetic parameters were determined with noncompartmental method(s) using Phoenix WinNonlin version 6.4 or above (Pharsight Corporation, Mountain View, Califormia, USA). Immunogenicity of spartalizumab was assessed through presence and/or concentration of anti-drug (spartalizumab) antibodies (ADA). Food effect on FGF401 exposure was evaluated through plasma concentration of FGF401 and relevant PK parameters when dosing under fed condition. Safety of the food effect was assessed through incidence and severity of AEs and serious AEs (SAEs), including changes in laboratory values, vital signs, and ECGs when dosing under fed condition.\nThe PK analyses and summary statistics were based on pharmacokinetic analysis set. Individual as well as mean concentration-time profiles were constructed using concentration data for spartalizumab and FGF401. Descriptive statistics for PK parameters included mean, standard deviation, coefficient of variation (CV%) mean, geometric mean, median, minimum, and maximum, with only the latter 3 for time to reach maximum concentration (Tmax) and additional 90% CI for accumulation ratio (Racc). Zero concentrations were not included in the geometric mean calculations. Missing concentrations or PK parameter values were not imputed."}, "[3]": {"assay": "Immunogenicity of spartalizumab (anti-drug antibodies)", "assay_type": "in vivo, human", "description": "as §1"}, "[4]": {"conditions": "HCC patients with > 2 prior lines of therapy, qd schedule"}, "[5]": {"conditions": "spartalizumab 300 mg with FGF401 80 mg, n=6"}, "[6]": {"conditions": "spartalizumab 300 mg with FGF401 120 mg, n=6"}}, "note": "Read-outs that look alike come from different tables or passages of the source."}
{"compound": "C=CC(=O)Nc1cc(N2CCN(CC)CC2)ccc1Nc1cc(N(C)C(=O)Nc2c(Cl)c(OC)cc(OC)c2Cl)ncn1", "note": "[H3B-6527]", "values": [{"measurement": "drug discontinuation due to AEs", "setting": "[1]; HCC and intrahepatic cholangiocarcinoma, qd dosing", "result": 8.3, "unit": "%"}, {"measurement": "Grade 3 TEAE", "setting": "[1]; HCC and intrahepatic cholangiocarcinoma", "result": 12.5, "unit": "%"}, {"measurement": "OS", "setting": "[1]; [4]", "result": 10.6, "unit": "months"}, {"measurement": "PFS", "setting": "[1]; [4]", "result": 4.1, "unit": "months"}, {"measurement": "ORR", "setting": "[1]; all PR, HCC patients with > 2 prior lines of therapy, qd schedule", "result": 16.7, "unit": "%"}, {"measurement": "clinical benefit rate", "setting": "[1]; responders + durable SD > 17 weeks, HCC, qd schedule", "result": 45.8, "unit": "%"}]}
{"compound": "C=CC(=O)N[C@H]1CCOC[C@H]1Nc1ncc2cc(-c3c(Cl)c(OC)cc(OC)c3Cl)ccc2n1", "note": "[BLU-554, fisogatinib]", "values": [{"measurement": "ORR", "setting": "patients with HCC; FGF19-negative patients", "result": 0, "unit": "%"}, {"measurement": "median duration of response", "setting": "patients with HCC; FGF19-positive patients, 95% CI: 3.7-not reached", "result": 5.3, "unit": "months"}, {"measurement": "ORR", "setting": "patients with HCC; FGF19-positive patients", "result": 17, "unit": "%"}, {"measurement": "Treatment discontinuation due to AE", "setting": "patients with HCC", "result": 12, "unit": "%"}, {"measurement": "Grade ≥ 3 TRAEs", "setting": "patients with HCC; most common transaminase elevation", "result": 43, "unit": "%"}, {"measurement": "treatment related AE: diarrhea", "setting": "patients with HCC; qd", "result": 74, "unit": "%"}, {"measurement": "treatment related AE: nausea", "setting": "patients with HCC; qd", "result": 42, "unit": "%"}, {"measurement": "treatment related AE: vomiting", "setting": "patients with HCC; qd", "result": 35, "unit": "%"}]}
{"compound": "spartalizumab: humanized immunoglobulin G4κ monoclonal antibody that binds PD-1 and blocks its interaction with PD-L1/PD-L2", "values": [{"measurement": "AUC0-504h", "setting": "[2]; spartalizumab 300 mg with FGF401 80 mg, n=3", "result": "760 (1.9) day*µg/mL"}, {"measurement": "AUClast", "setting": "[2]; [5]", "result": "795 (34.5) day*µg/mL"}, {"measurement": "Cmax", "setting": "[2]; [5]", "result": 74.7, "unit": "µg/mL"}, {"measurement": "Tmax", "setting": "[2]; [5]", "result": "1.58 [1.5-161] h"}, {"measurement": "AUC0-504h", "setting": "[2]; [6]", "result": "967 (13.9) day*µg/mL"}, {"measurement": "AUClast", "setting": "[2]; [6]", "result": "978 (15.8) day*µg/mL"}, {"measurement": "Cmax", "setting": "[2]; [6]", "result": 87.7, "unit": "µg/mL"}, {"measurement": "Tmax", "setting": "[2]; [6]", "result": "1.5 [1.43-1.5] h"}, {"measurement": "spartalizumab exposures in combination versus similar studies with 300 mg q3w", "setting": "[2]; compared with refs 25, 30", "result": "might be comparable"}, {"measurement": "geo-mean AUClast", "setting": "[2]; spartalizumab in combination with 80 mg FGF401", "result": 795, "unit": "µg·days/mL"}, {"measurement": "geo-mean AUClast", "setting": "[2]; spartalizumab in combination with 120 mg FGF401", "result": 978, "unit": "µg·days/mL"}, {"measurement": "patients positive for treatment-induced ADA for spartalizumab", "setting": "[3]; One of 12 patients, C2D1 and C3D1 predose", "result": 8.3, "unit": "%"}, {"measurement": "ADA titers", "setting": "[3]; one ADA-positive patient", "result": "low to moderate"}, {"measurement": "influence of ADA on PK profiles", "setting": "[3]; one ADA-positive patient", "result": "did not appear to influence the PK profiles"}]}
